These results are taken from patent US9745349B2, “Cyclic peptide and pharmaceutical product containing same” (JAPAN SCIENCE AND TECHNOLOGY AGENCY, priority 2012, dated 2017).

Sequence of O-acyl isopeptide of Aβ (P05067 672-713 limits assumed): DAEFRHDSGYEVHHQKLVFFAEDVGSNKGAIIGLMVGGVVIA

This assay concerns the target O-acyl isopeptide of Aβ (Homo sapiens, UniProt P05067). Kind of assay: Aβ aggregation inhibition test (thioflavin T fluorescence). The assay is classed as biochemical. The note with it: inhibitor 30 μM, Aβ O-acyl isopeptide 10 μM, 0.1 M phosphate buffer pH 7.4, 1% DMSO, 37° C.; DMSO control taken as 100.
Procedure: An aggregation inhibitory peptide solution (DMSO solution) was added to a 0.1 M phosphate buffer (pH 7.4, 50 μL) containing O-acyl isopeptide of Aβ (10 μM) (final concentration of inhibitor: 30 μM, 1% DMSO), and the resultant mixture was incubated at 37° C. for a specific period of time. Thereafter, a portion of the reaction mixture (10 μL) was added to a mixture of thioflavin T solution (50 μM thioflavin T, 10 μL) and 50 mM glycine-NaOH buffer (pH 8.5, 396 μL). Immediately thereafter, they were mixed together, and the fluorescence intensity of thioflavin T was measured at an excitation wavelength of 440 nm and an emission wavelength of 480 nm.
As to “cyclo-D-[Ala-Leu-Val-Phe-Phe] (ALVFF; HELM PEPTIDE1{[dA].[dL].[dV].[dF].[dF]}$PEPTIDE1,PEPTIDE1,1:R1-5:R2$$$V2.0; SMILES CC(C)C[C@H]1NC(=O)[C@@H](C)NC(=O)[C@@H](Cc2ccccc2)NC(=O)[C@@H](Cc2ccccc2)NC(=O)[C@@H](C(C)C)NC1=O) [Compound 3]”, the “Aggregation inhibitory activity ratio (the lower the ratio, the higher the inhibitory activity)” value is 66.

Take “cyclo-D-[Lys-Ala-Val-Phe-Phe] [Compound 4]”: the “Aggregation inhibitory activity ratio (the lower the ratio, the higher the inhibitory activity)” value was found to be 88.

“cyclo-D-[Lys-Leu-Ala-Phe-Phe] [Compound 5]”: the “Aggregation inhibitory activity ratio (the lower the ratio, the higher the inhibitory activity)” value is on record as 82.

For “cyclo-D-[Lys-Leu-Val-(4-(2-Py)-Ph)Ala-Phe] [Compound 13]”, the “Aggregation inhibitory activity ratio (the lower the ratio, the higher the inhibitory activity)” value is listed as 81.

Take “cyclo-D-[Lys-Leu-Val-(4-(3-Py)-Ph)Ala-Phe] [Compound 14]”: the “Aggregation inhibitory activity ratio (the lower the ratio, the higher the inhibitory activity)” value is 49.

On to “cyclo-D-[Lys-Leu-Val-(4-(3-phenol)-Ph)Ala-Phe] [Compound 17]”, for which the “Aggregation inhibitory activity ratio (the lower the ratio, the higher the inhibitory activity)” value turned out to be 39.

Take “cyclo-D-[Lys-Leu-Val-(4-(4-Py)-Ph)Ala-Phe] [Compound 15]”: the “Aggregation inhibitory activity ratio (the lower the ratio, the higher the inhibitory activity)” value is given as 57.

For “cyclo-D-[Lys-Leu-Val-(4-(5-pyrimidine)-Ph)Ala-Phe] [Compound 16]”, the “Aggregation inhibitory activity ratio (the lower the ratio, the higher the inhibitory activity)” value turned out to be 90.

Regarding “cyclo-D-[Lys-Leu-Val-Ala-Phe] [Compound 6]”, the “Aggregation inhibitory activity ratio (the lower the ratio, the higher the inhibitory activity)” value came to 106.

Consider “cyclo-D-[Lys-Leu-Val-Phe(βPh)-Phe] [Compound 8]”, for which the “Aggregation inhibitory activity ratio (the lower the ratio, the higher the inhibitory activity)” value is reported as 28.

Regarding “cyclo-D-[Lys-Leu-Val-Phe-Ala] [Compound 7]”, the “Aggregation inhibitory activity ratio (the lower the ratio, the higher the inhibitory activity)” value worked out at 104.
